According to patent US20240294551A1 (AMGEN INC., priority 2022, published 2024):
Where two headings read alike, the source gives them in different places.

Experiments:
[1] = target: GDP-bound KRAS protein (aa 1-169), containing both G12D and C118A amino acid substitutions (Homo sapiens (Human), UniProt P01116, C118A/G12D); assay: KRAS G12D Coupled Nucleotide Exchange Assay; assay type: biochemical
[2] = target: His-tagged KRAS G12D protein (Homo sapiens (Human), UniProt P01116, G12D); assay: KRAS G12D TR-FRET Assay; assay type: binding
How it was run: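 His-tagged KRAS G12D (diluted to 20 nM in pH 7.4 HEPES buffer with 10 mM MgCl2 and 10 μM GDP) was preincubated with titrated compound for 30 min at room temperature. Biotinylated KRPep-2d peptide (diluted to 20 nM) was then added for 1 h, and displacement was monitored by TR-FRET.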

[3] = read-out: KRAS G12D Coupled Exchange IC50
[4] = read-out: KRAS G12D Binding IC50
[5] = 2 hours compound pre-incubation, read-out: KRAS G12D Coupled Exchange
[6] = TR-FRET, read-out: KRAS G12D Binding

Chain of His-tagged KRAS G12D protein (P01116 other isoform, or with tags, fused parts or gaps G12D): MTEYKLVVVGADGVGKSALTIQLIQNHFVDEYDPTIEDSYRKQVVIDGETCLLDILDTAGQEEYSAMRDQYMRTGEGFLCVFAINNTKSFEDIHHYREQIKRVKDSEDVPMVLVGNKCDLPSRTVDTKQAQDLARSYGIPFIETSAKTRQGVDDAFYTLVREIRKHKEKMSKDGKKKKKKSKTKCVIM
Chain of GDP-bound KRAS protein (aa 1-169), containing both G12D and C118A amino acid substitutions (P01116 other isoform, or with tags, fused parts or gaps G12D/C118A): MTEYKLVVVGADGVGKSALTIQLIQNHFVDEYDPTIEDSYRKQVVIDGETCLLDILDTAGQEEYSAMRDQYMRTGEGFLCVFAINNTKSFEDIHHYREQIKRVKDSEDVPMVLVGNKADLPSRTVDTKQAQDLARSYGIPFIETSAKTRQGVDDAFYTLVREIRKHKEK

SMILES | IC50 [1, 3] [nM] | IC50 [2, 4] [nM] | IC50 [1, 5] [nM] | IC50 [2, 6] [nM]
O=C1CCCCc2c(Cl)cc3[nH]ncc3c2-c2ncc3c(nc(OC[C@@]45CCCN4C[C@H](F)C5)nc3c2F)N2C[C@H]3CN1[C@H]3C2 [Example 169, (18S,19R)-9-chloro-30-fluoro-24-(((2R,7aS)-2-fluorotetrahydro-1H-pyrrolo[1,2-a]pyrrol-7a(5H)-yl)methoxy)-5,6,16,21,23,25,29-heptaazaheptacyclo[24.3.1.1~18,21~.0~2,10~.0~3,7~.0~16,19~.0~22,27~]hentriaconta-1(30),2,4,7,9,22,24,26,28-nonaen-15-one] | 339 | 616 |  | 
Cc1nc2c3cnc(c(F)c3n1)-c1c(c(C)cc3[nH]ncc13)CCCOC(=O)O[C@@H]1COCCN2C1 [Example 210, (26S)-32-fluoro-4,18-dimethyl-23,25,28-trioxa-1,3,5,9,14,15-hexaazahexacyclo[24.4.1.1~6,10~.0~2,7~.0~11,19~.0~12,16~]dotriaconta-2,4,6,8,10(32),11,13,16,18-nonaen-24-one] | 431 | 435 |  | 
Fc1c2ncc3c(nc(OC[C@@]45CCCN4C[C@H](F)C5)nc13)N1CCO[C@@H](C1)c1coc(n1)CCCc1c(Cl)cc3[nH]ncc3c1-2 [Example 389, (18S)-9-chloro-31-fluoro-25-(((2R,7aS)-2-fluorotetrahydro-1H-pyrrolo[1,2-a]pyrrol-7a(5H)-yl)methoxy)-15,19-dioxa-5,6,22,24,26,30,33-heptaazaheptacyclo[25.3.1.1~14,17~.1~18,22~.0~2,10~.0~3,7~.0~23,28~]tritriaconta-1(31),2,4,7,9,14(33),16,23,25,27,29-undecaene] |  |  | 1020 | 3960
O=C1CCCc2c(F)ccc3cccc(c23)-c2ncc3c(nc(OC[C@@]45CCCN4C[C@H](F)C5)nc3c2F)N2CC[C@@H]3CCN1[C@@H]3C2 [Example 71, (27R,31S)-18,33-Difluoro-4-(((2R,7aS)-2-fluorotetrahydro-1H-pyrrolo[1,2-a]pyrrol-7a(5H)-yl)methoxy)-1,3,5,9,24 pentaazaheptacyclo[22.5.2.1˜6,10˜.1˜11,15˜.0˜2,7˜.0˜19,32˜.0˜27,31˜]tritriaconta-2,4,6,8,10(33),11,13,15(32),16,18-decaen-23-one] | 119 | 306 |  | 
Cc1cc2[nH]ncc2c2c1[C@@H]1C[C@@H]1CCOC[C@H]1CN(CCO1)c1nc(OC[C@@]34CCCN3C[C@H](F)C4)nc3c(F)c-2ncc13 (single isomer, unassigned) [Example 225] | 4770 | 9620 |  | 
Cc1cc2[nH]ncc2c2c1CCOC(=O)O[C@H]1C[C@@]3(CCCN(C3)c3nc(OC[C@@H]4CCCN4C)nc4c(F)c-2ncc34)C1 (single isomer, unassigned) [Example 325] | 65 | 99 |  | 

More lines, now with the values ahead:

IC50 [1, 3] [nM] | IC50 [2, 4] [nM] | IC50 [1, 5] [nM] | IC50 [2, 6] [nM] | SMILES
610 | 1910 |  |  | O=C1N[C@H]2C[C@@H](O)CN(C2)c2nc(OC[C@@]34CCCN3C[C@H](F)C4)nc3c(F)c(ncc23)-c2c(c(Cl)cc3[nH]ncc23)CCCO1 [Example 285, (17S,19R)-9-chloro-30-fluoro-24-(((2R,7aS)-2-fluorotetrahydro-1H-pyrrolo[1,2-a]pyrrol-7a(5H)-yl)methoxy)-19-hydroxy-14-oxa-5,6,16,21,23,25,29-heptaazahexacyclo[24.3.1.1~17,21~.0~2,10~.0~3,7~.0~22,27~]hentriaconta-1(30),2,4,7,9,22,24,26,28-nonaen-15-one]
196 | 180 |  |  | O=C1CCCc2c(F)ccc3cccc(c23)-c2ncc3c(nc(OC[C@@]45CCCN4C[C@H](F)C5)nc3c2F)N2CCOC[C@H](C2)O1 [Example 109]
 |  | 1810 | 3730 | Fc1c2ncc3c(nc(OC[C@@]45CCCN4C[C@H](F)C5)nc13)N1CCC[C@@H](C1)c1cnc(o1)CCCc1c(Cl)cc3[nH]ncc3c1-2 [Example 386, (18S)-9-chloro-31-fluoro-25-(((2R,7aS)-2-fluorotetrahydro-1H-pyrrolo[1,2-a]pyrrol-7a(5H)-yl)methoxy)-33-oxa-5,6,15,22,24,26,30-heptaazaheptacyclo[25.3.1.1~14,17~.1~18,22~.0~2,10~.0~3,7~.0~23,28~]tritriaconta-1(31),2,4,7,9,14,16,23,25,27,29-undecaene]
